# Test results reported in PubChem BioAssay (NCI).
#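 GI50 = concentration required for 50% inhibition of growth. TGI marks complete inhibition of growth.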
# Key:
# Assay in all cases: NCI anticancer screen, dose series, 384-well format
# [1] = test system: SF-268 CNS
# [2] = test system: MALME-3M melanoma
# [3] = test system: HS 578T breast
# [4] = test system: TK-10 renal
# [5] = test system: SN12C renal
# [6] = test system: SNB-19 CNS
# [7] = test system: SK-MEL-28 melanoma
# [8] = test system: CAKI-1 renal
# [9] = test system: SF-539 CNS
# [10] = test system: EKVX NSCLC
# [11] = test system: K-562 leukemia
# [12] = test system: CCRF-CEM leukemia
# [13] = test system: NCI-H460 NSCLC
# [14] = test system: OVCAR-8 ovarian
# [15] = test system: SF-295 CNS
# [16] = test system: LOX IMVI melanoma
# [17] = test system: A498 renal
# [18] = test system: OVCAR-4 ovarian
# [19] = test system: IGROV1 ovarian
# [20] = test system: MCF7 breast
# [21] = test system: M14 melanoma
# [22] = test system: A549 NSCLC
# [23] = test system: RXF 393 renal
# [24] = test system: SNB-75 CNS
# [25] = test system: OVCAR-3 ovarian
# [26] = test system: COLO 205 colon
# [27] = test system: MDA-MB-231 breast
# [28] = test system: SK-MEL-5 melanoma
# [29] = test system: HCT-15 colon
# [30] = test system: HCC-2998 colon
# [31] = test system: OVCAR-5 ovarian
# [32] = test system: KM12 colon
# [33] = test system: PC-3 prostate
# [34] = test system: BT-549 breast
# [35] = test system: UACC-257 melanoma
# [36] = test system: HOP-62 NSCLC
# [37] = test system: HOP-92 NSCLC
# [38] = test system: HL-60(TB) leukemia
# [39] = test system: 786-0 renal
# [40] = test system: NCI/ADR-RES ovarian
# [41] = test system: MOLT-4 leukemia
# [42] = test system: NCI-H322M lung
# [43] = test system: DU-145 prostate
# [44] = test system: HCT-116 colon
# [45] = test system: HT29 colon
# [46] = test system: NCI-H226 lung
# [47] = test system: NCI-H23 lung
# [48] = test system: MDA-MB-435 melanoma
# [49] = test system: ACHN renal
# [50] = test system: MDA-MB-468 breast
# [51] = test system: SK-OV-3 ovarian
# [52] = test system: UO-31 renal
compound,measurement,setting,value
Cn1cc(C2=C(c3cn(C4CCN(Cc5ccccn5)CC4)c4ccccc34)C(=O)NC2=O)c2ccccc21,GI50,[1],3 µM
same,TGI,[1],7.84 µM
same,GI50,[2],2.84 µM
same,TGI,[2],7.71 µM
same,GI50,[3],2.22 µM
same,TGI,[3],5.08 µM
same,GI50,[4],2.7 µM
same,TGI,[4],> 100 µM
same,GI50,[5],1.26 µM
same,TGI,[5],> 100 µM
same,GI50,[6],2.61 µM
same,TGI,[6],> 100 µM
same,GI50,[7],2.89 µM
same,TGI,[7],> 100 µM
same,GI50,[8],3.99 µM
same,TGI,[8],> 100 µM
same,GI50,[9],1.2 µM
same,TGI,[9],> 100 µM
same,GI50,[10],0.917 µM
same,TGI,[10],> 100 µM
same,GI50,[11],0.454 µM
same,TGI,[11],1.58 µM
same,GI50,[12],0.403 µM
same,TGI,[12],1.24 µM
same,GI50,[13],0.344 µM
same,TGI,[13],84 µM
same,GI50,[14],6.7 µM
same,TGI,[14],> 100 µM
same,GI50,[15],4.48 µM
same,TGI,[15],> 100 µM
same,GI50,[16],3.1 µM
same,TGI,[16],> 100 µM
same,GI50,[17],0.718 µM
same,TGI,[17],7.71 µM
same,GI50,[18],3.33 µM
same,TGI,[18],> 100 µM
same,GI50,[19],3.57 µM
same,TGI,[19],> 100 µM
same,GI50,[20],2.98 µM
same,TGI,[20],> 100 µM
same,GI50,[21],2.94 µM
same,TGI,[21],9.21 µM
same,GI50,[22],5.18 µM
same,TGI,[22],> 100 µM
same,GI50,[23],2.06 µM
same,TGI,[23],4.85 µM
same,GI50,[24],1.41 µM
same,TGI,[24],7.12 µM
same,GI50,[25],0.5 µM
same,TGI,[25],3.36 µM
same,GI50,[26],4.14 µM
same,TGI,[26],> 100 µM
same,GI50,[27],4.21 µM
same,TGI,[27],> 100 µM
same,GI50,[28],0.372 µM
same,TGI,[28],95.5 µM
same,GI50,[29],0.623 µM
same,TGI,[29],> 100 µM
same,GI50,[30],1.5 µM
same,TGI,[30],12.4 µM
same,GI50,[31],> 100 µM
same,TGI,[31],> 100 µM
same,GI50,[32],3.93 µM
same,TGI,[32],> 100 µM
same,GI50,[33],2.98 µM
same,TGI,[33],> 100 µM
same,GI50,[34],1.6 µM
same,TGI,[34],> 100 µM
same,GI50,[35],> 100 µM
same,TGI,[35],> 100 µM
same,GI50,[36],3.22 µM
same,TGI,[36],> 100 µM
same,GI50,[37],4.24 µM
same,TGI,[37],> 100 µM
same,GI50,[38],0.713 µM
same,TGI,[38],2.54 µM
same,GI50,[39],3.31 µM
same,TGI,[39],> 100 µM
same,GI50,[40],3.33 µM
same,TGI,[40],> 100 µM
same,GI50,[41],1.9 µM
same,TGI,[41],3.35 µM
same,GI50,[42],5.75 µM
same,TGI,[42],> 100 µM
same,GI50,[43],2.65 µM
same,TGI,[43],> 100 µM
same,GI50,[44],0.645 µM
same,TGI,[44],> 100 µM
same,GI50,[45],3.29 µM
same,TGI,[45],> 100 µM
same,GI50,[46],3.31 µM
same,TGI,[46],> 100 µM
same,GI50,[47],5.28 µM
same,TGI,[47],> 100 µM
same,GI50,[48],0.421 µM
same,TGI,[48],39.4 µM
same,GI50,[49],8.73 µM
same,TGI,[49],> 100 µM
same,GI50,[50],0.274 µM
same,TGI,[50],0.593 µM
same,GI50,[51],2.52 µM
same,TGI,[51],> 100 µM
same,GI50,[52],1.11 µM
same,TGI,[52],> 100 µM
